From the NIST ThermoML archive (doi:10.1021/je600552b) come the findings set out here.

± gives the expanded uncertainty stated by the source.

The conditions of this series: 101.33 kPa, Liquid, Falling or rolling sphere viscometry.

For orientation: viscosity means the internal friction of a fluid under shear. In the case of `CCCCCCCCCCCCCC(=O)OC` [methyl tetradecanoate], the viscosity (293.15 K) amounted to 4.442 ± 0.15 mPa·s; the viscosity (303.15 K) is given as 3.496 ± 0.12 mPa·s; the viscosity (313.15 K) stood at 2.841 ± 0.098 mPa·s; the viscosity (323.15 K) is on record as 2.252 ± 0.078 mPa·s; the viscosity (333.15 K) was found to be 1.819 ± 0.063 mPa·s; the viscosity (343.15 K) came out at 1.521 ± 0.052 mPa·s.
In the case of `CC/C=C\C/C=C\C/C=C\CCCCCCCC(=O)OCC(COC(=O)CCCCCCC/C=C\C/C=C\C/C=C\CC)OC(=O)CCCCCCC/C=C\C/C=C\C/C=C\CC` [trilinolenin], the kinematic viscosity by setting is: (293.15 K) 2.37e-05 ± 8.1e-07 m2/s; (303.15 K) 1.76e-05 ± 6.1e-07 m2/s; (313.15 K) 1.36e-05 ± 4.6e-07 m2/s; (323.15 K) 1.07e-05 ± 3.7e-07 m2/s; (333.15 K) 8.68e-06 ± 3e-07 m2/s; (343.15 K) 7.18e-06 ± 2.5e-07 m2/s.
On to `CCCCC/C=C\C/C=C\CCCCCCCC(=O)OC` [methyl (Z,Z)-9,12-octadecadienate], for which the viscosity was found to be 4.798 ± 0.17 mPa·s (293.15 K); 3.822 ± 0.13 mPa·s (303.15 K); 3.166 ± 0.11 mPa·s (313.15 K); 2.55 ± 0.088 mPa·s (323.15 K); 2.078 ± 0.071 mPa·s (333.15 K); 1.755 ± 0.06 mPa·s (343.15 K).
Turning to `CC/C=C\C/C=C\C/C=C\CCCCCCCC(=O)O` [all-cis-9,12,15-octadecatrienoic acid], the kinematic viscosity is, setting by setting: (293.15 K) 1.55e-05 ± 7.9e-07 m2/s; (303.15 K) 1.24e-05 ± 6.3e-07 m2/s; (313.15 K) 8.91e-06 ± 4.5e-07 m2/s; (323.15 K) 7.26e-06 ± 3.7e-07 m2/s; (333.15 K) 5.96e-06 ± 3e-07 m2/s; (343.15 K) 5.13e-06 ± 2.6e-07 m2/s.
Consider `CC/C=C\C/C=C\C/C=C\CCCCCCCC(=O)OC` [methyl (Z,Z,Z)-9,12,15-octadecatrienoate], for which the viscosity reads like this: (293.15 K) 4.022 ± 0.14 mPa·s; (303.15 K) 3.301 ± 0.11 mPa·s; (313.15 K) 2.79 ± 0.096 mPa·s; (323.15 K) 2.299 ± 0.079 mPa·s; (333.15 K) 1.862 ± 0.064 mPa·s; (343.15 K) 1.596 ± 0.055 mPa·s.
Consider `CCCCCCCCCCCC(=O)OC` [methyl dodecanoate], for which the viscosity is, setting by setting: (293.15 K) 3.096 ± 0.11 mPa·s; (303.15 K) 2.475 ± 0.085 mPa·s; (313.15 K) 2.044 ± 0.07 mPa·s; (323.15 K) 1.643 ± 0.056 mPa·s; (333.15 K) 1.383 ± 0.047 mPa·s; (343.15 K) 1.173 ± 0.04 mPa·s.
As for `CCCCCCCCCCCCCCCC(=O)OC` [methyl hexadecanoate], the viscosity is listed as 3.764 ± 0.13 mPa·s (313.15 K), 2.931 ± 0.1 mPa·s (323.15 K), 2.336 ± 0.08 mPa·s (333.15 K) and 1.946 ± 0.067 mPa·s (343.15 K).
In the case of `CCCCCCCC/C=C\CCCCCCCC(=O)OC` [methyl cis-9-octadecenoate], the viscosity is, setting by setting: (293.15 K) 6.37 ± 0.22 mPa·s; (303.15 K) 4.922 ± 0.17 mPa·s; (313.15 K) 3.939 ± 0.14 mPa·s; (323.15 K) 3.097 ± 0.11 mPa·s; (333.15 K) 2.472 ± 0.085 mPa·s; (343.15 K) 2.054 ± 0.071 mPa·s.
